Measured values published in patent publication US11827917B1, “Methods for the conversion of fermentable sugars to ethanol” (Colorado State University Research Foundation, priority 2020, dated 2023).
“Also recorded” adds a separate entry of the source. Marks after values point to notes of the source that are not given here.

Columns and labels:
S. cerevisiae JAY 270 [1] = test: Screening of growth in 24-well plates on YPDA; format: cell-based, Saccharomyces cerevisiae; settings: for Cell growth score (colony size): YPDA, 30° C., 24 h
Protocol: Procedure: An inoculum culture of S. cerevisiae JAY 270 was grown in 100 mL of yeast extract-peptone-dextrose (YPD) medium (10 g/L yeast extract, 20 g/L peptone, 20 g/L glucose) in 200-mL serum bottles overnight in a shaker at 30° C. and 200 rpm. The cells were collected by centrifuging 10 min at 4000×g and 4° C. To wash off the medium residue, the cell pellet was resuspended in 30 mL of sterile 0.8% (w/v) NaCl solution and centrifuged at 4000×g for 10 min. The cell pellet was washed twice. Finally, the cell pellet was resuspended and diluted in 0.8% (w/v) NaCl to achieve cell concentrations of OD600=0.02 and 0.2.
The eight compounds were added in YPDA separately at 0.03%, 0.05%, 0.1%, and 0.2% (w/v). The standard control treatment contained only YPDA medium without addition of these compounds. Since the TrpOH and TyrOH stock solutions were dissolved in DMSO, the controls for those tests were YPDA with the same concentration of DMSO. A 3-mL aliquot of YPDA medium with or without the test compounds were loaded in each well of the 24-well plate.
Ten μL of the prepared S. cerevisiae JAY 270 cell suspension at OD600=0.02 or 0.2 was loaded onto the YPDA medium in each well of the 24-well plates. Then the plates were sealed with Parafilm and incubated at 30° C. for 24 h. There were four biological replicates for each treatment.
Yeast cell growth was evaluated by visual observation of the colony size in the well and scored as 0, +, ++, and +++.

S. cerevisiae JAY 270 [2] = test: Growth test in liquid YNB medium, low/high nitrogen, serum bottles; format: cell-based, Saccharomyces cerevisiae; settings: 40, 200, 1000 mg/L; low and high nitrogen media
Protocol: A second set of tests was performed in a defined liquid medium, Yeast Nitrogen Base with Glucose (YNB), containing (NH4)2SO4 at either low (1 mM) or high (10 mM) nitrogen content. […] All serum bottles were incubated in a shaker at 30° C. and 150 RPM. Each treatment was performed in biological duplicate. Samples were collected at 0, 5, and 10 hours.

S. kudriavzezii JAY 1503 = test: Serum-bottle cultivation in YPD, different yeast strains; format: cell-based; settings: 0.2%
Protocol: (§1) Analytical methods: Cell growth was evaluated by monitoring OD600 and cell dry mass concentration. For dry mass measurements, 1.0 mL of culture was transferred to a pre-dried and pre-weighed 2-mL centrifuge tube. The tubes were centrifuged for 10 min at 14000 rpm using a microcentrifuge, and then the cell pellets were dried in an oven for 3 days at 65° C. The cell dry mass was determined by subtracting the initial tube mass from the dried mass of tube with cells. The concentrations of glucose, ethanol, and glycerol were measured via HPLC (Shimadzu LC20A series) outfitted with a refractive index detector and using an Aminex HPX-87H (300×7.8 mm) organic acid column and Cation H+ guard cartridge (Bio Rad Laboratories, Hercules, CA). The column was maintained at 65° C. and the mobile phase was 5 mM sulfuric acid with a flow rate of 0.6 mL/min. Standard compound solutions were used to calibrate the HPLC. Each sample was analyzed three times by HPLC.
(§2) Procedure: Seven yeast strains (S. cerevisiae ATCC 26603, S. cerevisiae JAY 238, S. cerevisiae JAY 240, S. cerevisiae JAY 241, S. paradoxus JAY 1502, S. kudriavzezii JAY 1503, and S. mikatae JAY 1504) were pre-cultured in 30 mL of YPD medium in 100 mL serum bottle overnight in a shaker at 30° C. and 200 rpm. The precultured yeast cells of each strains were collected and washed twice. Finally, the cell pellet was resuspended in about 10 mL 0.8% (w/v) NaCl and the OD600 measured. TyrOH, PheOH, and TrpOH were added to 30 mL of YPD medium in 100-mL serum bottles at 0.2% (w/v) respectively. The same amount of DMSO was added in YPD medium and served as control to the TrpOH and TyrOH treatments. The prepared yeast cells were added to obtain the initial cell concentration at OD600=0.2. The serum bottles were sealed and cultured in a shaker at 30° C. and 200 rpm for 24 h. There were three biological replicates for each treatment.

S. mikatae JAY 1504 = test: as above; format: cell-based; settings: 0.2%
Protocol: as §1, §2

S. paradoxus JAY 1502 = test: as above; format: cell-based; settings: 0.2%
Protocol: as §1, §2

[3] = S. kudriavzezii JAY 1503, YPD (Table 9B)
[4] = S. mikatae JAY 1504, YPD (Table 9B)
[5] = S. paradoxus JAY 1502, YPD (Table 9B)

With `OCCc1ccccc1` [PheOH, 2-phenylethanol] the “Cell growth score (colony size)” value (S. cerevisiae JAY 270 [1]; 0.03% (w/v)) was “+++”, the “Cell growth score (colony size)” value (S. cerevisiae JAY 270 [1]; 0.05% (w/v)) was “+++” and the “Cell growth score (colony size)” value (S. cerevisiae JAY 270 [1]; 0.10% (w/v)) was “++”. The “Cell growth score (colony size)” value (S. cerevisiae JAY 270 [1]; 0.20% (w/v)) was “+”, the “Concentration at which cell growth was reduced in the plate assay” value (S. cerevisiae JAY 270 [1]; molar equivalent of the % w/v value) was 8.2 mM and the “Effect on cell growth in the plate assay (words)” value (S. cerevisiae JAY 270 [1]; tested concentrations, 24-well plates) was “inhibited growth; also recorded: reduced the growth”. For the same compound, the “Inhibitory effect on yeast cell growth in liquid YNB medium” value (S. cerevisiae JAY 270 [2]) was “inhibitory at 1000 mg/L in both media, but not at 40 and 200 mg/L”, the “Biomass Yield” value (S. kudriavzezii JAY 1503; S. kudriavzezii JAY 1503) was 0.036 ± 0.001 g/g and the “Biomass yield % change vs. control” value (S. kudriavzezii JAY 1503; S. kudriavzezii JAY 1503) was −19%. For the same compound, the “EtOH yield” value (S. kudriavzezii JAY 1503; S. kudriavzezii JAY 1503) was 0.399 ± 0.030 g/g, the “EtOH yield % change vs. control” value (S. kudriavzezii JAY 1503; S. kudriavzezii JAY 1503) was “+8.7%” and the “Glycerol yield” value (S. kudriavzezii JAY 1503; S. kudriavzezii JAY 1503) was 0.060 ± 0.005 g/g. The “Glycerol yield % change vs. control” value (S. kudriavzezii JAY 1503; S. kudriavzezii JAY 1503) was “+19* %”, the DCW (S. kudriavzezii JAY 1503; S. kudriavzezii JAY 1503, YPD) was 1.90 mg and the “DCW Δ vs. ref” value (S. kudriavzezii JAY 1503; S. kudriavzezii JAY 1503, YPD) was 84.4%. For the same compound, the OD600 (S. kudriavzezii JAY 1503; S. kudriavzezii JAY 1503, YPD) was 0.92, the “OD600 Δ vs. ref” value (S. kudriavzezii JAY 1503; S. kudriavzezii JAY 1503, YPD) was 74.9% and the “Biomass Yield” value (S. kudriavzezii JAY 1503; [3]) was 0.043 + 0.004 g/g. For the same compound, the “Biomass yield Δ vs. ref” value (S. kudriavzezii JAY 1503; [3]) was 18.6%, the Ethanol yield (S. kudriavzezii JAY 1503; [3]) was 0.399 ± 0.030 g/g and the “Ethanol yield Δ vs. ref” value (S. kudriavzezii JAY 1503; [3]) was 8.7%. The Glycerol yield (S. kudriavzezii JAY 1503; [3]) was 0.06 ± 0.005 g/g, the “Glycerol yield Δ vs. ref” value (S. kudriavzezii JAY 1503; [3]) was 18.78% and the “Biomass Yield” value (S. mikatae JAY 1504; S. mikatae JAY 1504) was 0.053 ± 0.000 g/g. For the same compound, the “Biomass yield % change vs. control” value (S. mikatae JAY 1504; S. mikatae JAY 1504) was −14%, the “EtOH yield” value (S. mikatae JAY 1504; S. mikatae JAY 1504) was 0.386 ± 0.009 g/g and the “EtOH yield % change vs. control” value (S. mikatae JAY 1504; S. mikatae JAY 1504) was “+3.6%”. For the same compound, the “Glycerol yield” value (S. mikatae JAY 1504; S. mikatae JAY 1504) was 0.043 ± 0.007 g/g, the “Glycerol yield % change vs. control” value (S. mikatae JAY 1504; S. mikatae JAY 1504) was “+4.1%” and the DCW (S. mikatae JAY 1504; S. mikatae JAY 1504, YPD) was 2.35 mg. For the same compound, the “DCW Δ vs. ref” value (S. mikatae JAY 1504; S. mikatae JAY 1504, YPD) was 77.1%, the OD600 (S. mikatae JAY 1504; S. mikatae JAY 1504, YPD) was 1.85 and the “OD600 Δ vs. ref” value (S. mikatae JAY 1504; S. mikatae JAY 1504, YPD) was 82.9%. For the same compound, the “Biomass Yield” value (S. mikatae JAY 1504; [4]) was 0.053 + 0.000 g/g, the “Biomass yield Δ vs. ref” value (S. mikatae JAY 1504; [4]) was −13.8% and the Ethanol yield (S. mikatae JAY 1504; [4]) was 0.386 ± 0.009 g/g. For the same compound, the “Ethanol yield Δ vs. ref” value (S. mikatae JAY 1504; [4]) was 3.6%, the Glycerol yield (S. mikatae JAY 1504; [4]) was 0.043 ± 0.007 g/g and the “Glycerol yield Δ vs. ref” value (S. mikatae JAY 1504; [4]) was 4.09%. For the same compound, the “Biomass Yield” value (S. paradoxus JAY 1502; S. paradoxus JAY 1502) was 0.048 ± 0.001 g/g, the “Biomass yield % change vs. control” value (S. paradoxus JAY 1502; S. paradoxus JAY 1502) was −30* % and the “EtOH yield” value (S. paradoxus JAY 1502; S. paradoxus JAY 1502) was 0.393 ± 0.000 g/g. For the same compound, the “EtOH yield % change vs. control” value (S. paradoxus JAY 1502; S. paradoxus JAY 1502) was “+2.7%”, the “Glycerol yield” value (S. paradoxus JAY 1502; S. paradoxus JAY 1502) was 0.048 ± 0.002 g/g and the “Glycerol yield % change vs. control” value (S. paradoxus JAY 1502; S. paradoxus JAY 1502) was “+22* %”. The DCW (S. paradoxus JAY 1502; S. paradoxus JAY 1502, YPD) was 1.95 mg, the “DCW Δ vs. ref” value (S. paradoxus JAY 1502; S. paradoxus JAY 1502, YPD) was 78.0% and the OD600 (S. paradoxus JAY 1502; S. paradoxus JAY 1502, YPD) was 1.64. For the same compound, the “OD600 Δ vs. ref” value (S. paradoxus JAY 1502; S. paradoxus JAY 1502, YPD) was 70.0%, the “Biomass Yield” value (S. paradoxus JAY 1502; [5]) was 0.048 + 0.001 g/g and the “Biomass yield Δ vs. ref” value (S. paradoxus JAY 1502; [5]) was −29.8%. For the same compound, the Ethanol yield (S. paradoxus JAY 1502; [5]) was 0.393 ± 0.000 g/g, the “Ethanol yield Δ vs. ref” value (S. paradoxus JAY 1502; [5]) was 2.7% and the Glycerol yield (S. paradoxus JAY 1502; [5]) was 0.048 ± 0.002 g/g. The “Glycerol yield Δ vs. ref” value (S. paradoxus JAY 1502; [5]) was 21.98%.
